Source: US10071998B2, “Iminothiadiazine dioxides bearing an amine-linked substituent as BACE inhibitors, compositions, and their use” (Merck Sharp & Dohme Corp., priority 2015, dated 2018)
Where two headings read alike, the source gives them in different places.

How the values were obtained:
[1] = biological target: Recombinant human soluble BACE-1 catalytic domain (Homo sapiens (Human), UniProt P56817); experiment: BACE-1 Ki Assay (BACE-1 HTRF FRET Assay); type: biochemical
Description: Assay 1: BACE-1 Ki Assay (BACE-1 HTRF FRET Assay)
The compounds of the invention were assessed for their ability to inhibit BACE-1 using the following assay.
The following reagents were used in this assay. Na^+-Acetate pH 5.0; 1% Brij-35; Glycerol; Dimethyl Sulfoxide (DMSO); Recombinant human soluble BACE-1 catalytic domain (>95% pure); APP Swedish mutant peptide substrate (QSY7-APP^swe-Eu): QSY7-EISEVNLDAEFC-Europium-amide.
A homogeneous time-resolved FRET assay can be used to determine IC50 values for inhibitors of the soluble human BACE-1 catalytic domain. This assay monitors the increase of 620 nm fluorescence that resulted from BACE-1 cleavage of an APPswedish APP^swe mutant peptide FRET substrate (QSY7-EISEVNLDAEFC-Europium-amide). This substrate contains an N-terminal QSY7 moiety that serves as a quencher of the C-terminal Europium fluorophore (620 nm Em). In the absence of enzyme activity, 620 nm fluorescence is low in the assay and increased linearly over 3 hours in the presence of uninhibited BACE-1 enzyme. Inhibition of BACE-1 cleavage of the QSY7-APP^swe-Eu substrate by inhibitors is manifested as a suppression of 620 nm fluorescence.
Varying concentrations of inhibitors at 3× the final desired concentration in a volume of 10 ul are preincubated with purified human BACE-1 catalytic domain (3 nM in 10 μl) for 30 minutes at 30° C. in reaction buffer containing 20 mM Na-Acetate pH 5.0, 10% glycerol, 0.1% Brij-35 and 7.5% DSMO. Reactions are initiated by addition of 10 μl of 600 nM QSY7-APP^swe-Eu substrate (200 nM final) to give a final reaction volume of 30 μl in a 384 well Nunc HTRF plate. The reactions are incubated at 30° C. for 1.5 hours. The 620 nm fluorescence is then read on a Rubystar HTRF plate reader (BMG Labtechnologies) using a […] delay followed by a 400 millisecond acquisition time window. Inhibitor IC50 values are derived from non-linear regression analysis of concentration response curves. Ki values are then calculated from IC50 values using the Cheng-Prusoff equation using a previously determined […] of 8 μM for the QSY7-APP^swe-Eu substrate at BACE-1. The example compounds of the invention were measured in this assay.

[2] = biological target: purified human autoBACE-2 (Homo sapiens (Human), UniProt Q9Y5Z0); experiment: BACE-2 Assay (BACE-HTRF assay); type: biochemical; details: Table 1; Ki calculated from IC50 with Cheng-Prusoff equation; read-out: BACE2 Ki
Description: Inhibitor IC50s, at purified human autoBACE-2 are determined in a time-resolved endpoint proteolysis assay that measures hydrolysis of the QSY7-EISEVNLDAEFC-Eu-amide FRET peptide substrate (BACE-HTRF assay). BACE-mediated hydrolysis of this peptide results in an increase in relative fluorescence (RFU) at 620 nm after excitation with 320 nm light. Inhibitor compounds, prepared at 3× the desired final concentration in 1× BACE assay buffer (20 mM sodium acetate pH 5.0, 10% glycerol, 0.1% Brij-35) supplemented with 7.5% DMSO are pre-incubated with an equal volume of autoBACE-2 enzyme diluted in 1×BACE assay buffer (final enzyme concentration 1 nM) in black 384-well NUNC plates for 30 minutes at 30° C. The assay is initiated by addition of an equal volume of the QSY7-EISEVNLDAEFC-Eu-amide substrate (200 nM final concentration, Km=8 μM […] for autoBACE-2) prepared in 1×BACE assay buffer supplemented with 7.5% DMSO and incubated for 90 minutes at 30° C. DMSO is present at 5% final concentration in the assay. Following laser excitation of sample wells at 320 nm, the fluorescence signal at 620 nm is collected for 400 ms following a 50 μs delay on a RUBYstar HTRF plate reader (BMG Labtechnologies). Raw RFU data is normalized to maximum (1.0 nM BACE/DMSO) and minimum (no enzyme/DMSO) RFU values. IC50 values are determined by nonlinear regression analysis (sigmoidal dose response, variable slope) of percent inhibition data with minimum and maximum values set to 0 and 100 percent respectively. Similar IC50s are obtained when using raw RFU data. The Ki values are calculated from the IC50 using the Cheng-Prusoff equation.

[3] = test system: CSF levels of Aβ1-40 (Aβ40); experiment: Aβ Reduction In Vivo (rat CSF Aβ40); details: 3 h, 10 mg/kg oral gavage
Description: Assay 3: Aβ Reduction In Vivo
The in vivo efficacy and/or potency of BACE inhibitors (test compounds) can be evaluated using a variety of animal models, including mouse, rat, dog, and monkey, and these animals can be wild type, transgenic, or gene knockout animals.
Generally, animals are administered (by oral gavage, intravenous injection, or by other suitable route) a test compound in doses ranging from, for example, 0.1 mg/kg (mg of compound per kg of animal body weight) to 100 mg/kg formulated in vehicles, such as cyclodextrin, phosphate buffer, hydroxypropyl methylcellulose or other suitable vehicles. One to twenty-four hours following the administration of compound, animals are sacrificed, and tissues (for example, brain, cerebrospinal fluid (CSF), and/or plasma) are collected for analysis of Aβ levels and/or test compound concentrations (Dovey et al., 2001, Journal of Neurochemistry, 76, 173-181). Tissue samples are processed appropriately and then analyzed for the presence of Aβ by specific sandwich ELISA assays based on electrochemiluminescence (ECL) technology.
For example, in the following assay for which data are reported below, male CD IGS rats (body weight approximately 120 g, Charles River Laboratories, Kingston, N.Y.) were used to asses lowering of CSF levels of Aβ1-40 (Aβ40) in the presence of compounds of the invention. At time 0, animals were administered by oral gavage a test compound at a dose of 10 mg/kg in 20% hydroxypropyl-β-cyclodextrin (dosing volume 5 mL/kg). A separate group of animals received 20% hydroxypropyl-β-cyclodextrin alone to serve as the vehicle control group. Three hours after administration, the rats were euthanized with excess CO2. Immediately following euthanasia, CSF was collected from the cisterna magna and quickly frozen on dry ice. Samples were stored at −80° C. until quantification of Aβ40 levels.
The measurement of endogenous rat Aβ40 in CSF relied on the 585 antibody (Ab585, BioSource, NONO585), which specifically recognizes the N-terminal sequence of rodent Aβ40, and on the monoclonal antibody, G2-10, which specifically recognizes the free C-terminus of Aβ40. Ab585 was labeled with biotin (b-Ab585) by first dialyzing the antibody sample extensively versus PBS (pH 7.8) to remove impurities, followed by dilution to between 1 and 2 mg/mL protein concentration. EZ-Link Sulfo-NHS-LC-Biotin (Pierce) was dissolved in PBS (pH 7.8) at a concentration of 1 mg/mL immediately prior to use. Ab585 was labeled with EZ-Link Sulfo-NHS-LC-biotin using a 10:1 biotin:antibody ratio by incubation at room temperature for 1 hour. The labeling reaction was quenched by addition of 1.0 M glycine to a final concentration of 0.1 M followed by 10 minute incubation at room temperature. Glycine was removed by extensive dialysis versus PBS.
For rat CSF Aβ40 determinations, a calibration curve of various concentrations of synthetic rodent Aβ40 was assayed in parallel with rat CSF samples in duplicate using an avidin-coated 96-well MSD plate (Mesoscale Diagnostics). Either 50 μL of rodent Aβ40 standards diluted in PBS (pH 7.4) supplemented with 1% BSA and 1% Tween-20 (standard diluent buffer) or 40 μL of standard diluent buffer plus 10 μL rat CSF were added to each 96 well avidin-coated plate. To each well was added 50 μL of 0.1 M HEPES (pH 7.5), 2% BSA, 2% Tween-20, 0.3 M NaCl (2× Aβ40 buffer) supplemented with the b-Ab585 capture and ruthenylated-G2-10 detection antibodies diluted to 1 μg/mL and 0.5 μg/mL, respectively. Plates were shaken for 1 min on a microplate shaker, covered to protect from light and incubated overnight (˜16 h) at 4° C. For detection, plates were first washed twice with 100 μL of 1×CSF Aβ40 buffer followed by addition of 160 μL of 1×MSD read buffer-T (Mesoscale Diagnostics) diluted in 1×CSF Aβ40 buffer. Plates were read on a MSD Sector Imager 2400 model (Mesoscale Diagnosotics). […]

[4] = Table 1, Ki calculated from IC50 with Cheng-Prusoff equation, read-out: BACE1 Ki
[5] = Table 2, male CD IGS rats, CSF three hours after administration, percent change vs vehicle cohort

Sequence of Recombinant human soluble BACE-1 catalytic domain (P56817 75-416): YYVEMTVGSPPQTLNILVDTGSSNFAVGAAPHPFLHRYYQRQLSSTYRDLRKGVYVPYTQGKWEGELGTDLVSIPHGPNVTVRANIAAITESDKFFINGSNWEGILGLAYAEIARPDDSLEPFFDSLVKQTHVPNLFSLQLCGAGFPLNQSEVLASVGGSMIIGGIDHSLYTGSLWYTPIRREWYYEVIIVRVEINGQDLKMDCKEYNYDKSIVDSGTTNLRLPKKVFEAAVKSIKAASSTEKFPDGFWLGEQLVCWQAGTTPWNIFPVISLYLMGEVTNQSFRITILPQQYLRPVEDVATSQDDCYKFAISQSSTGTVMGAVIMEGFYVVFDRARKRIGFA
Sequence of purified human autoBACE-2 (Q9Y5Z0 63-473): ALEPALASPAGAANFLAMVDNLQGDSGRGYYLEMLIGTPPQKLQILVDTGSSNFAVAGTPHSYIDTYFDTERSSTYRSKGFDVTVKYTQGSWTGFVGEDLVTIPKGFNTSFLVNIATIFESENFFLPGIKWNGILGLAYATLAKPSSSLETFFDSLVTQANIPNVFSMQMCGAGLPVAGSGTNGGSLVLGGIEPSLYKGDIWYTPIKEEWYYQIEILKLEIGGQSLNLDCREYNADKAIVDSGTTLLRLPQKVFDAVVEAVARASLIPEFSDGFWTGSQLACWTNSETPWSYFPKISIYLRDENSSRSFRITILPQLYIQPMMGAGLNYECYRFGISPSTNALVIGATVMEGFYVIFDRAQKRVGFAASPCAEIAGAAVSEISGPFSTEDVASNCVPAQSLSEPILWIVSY

| SMILES | Ki [1, 4] [nM] | Ki ([1]; Table 2, read-out: BACE1 Ki) [nM] | Ki [2] [nM] | Ki ([1]; Table 3, comparator compounds of WO2011044181, read-out: BACE-1 Ki Nm) [nM] | change in vivo at 10 mg/kg [3, 5] [%] | change in vivo at 10 mg/kg ([3]; Table 3, comparator compounds of WO2011044181, rats, CSF at three hours, percent change vs vehicle) [%] |
| --- | --- | --- | --- | --- | --- | --- |
| COc1cnc2c(Nc3ccc(F)c([C@]4(C)CS(=O)(=O)N(C)C(=N)N4)c3)ncnc2c1 [Example 14, N-{4-fluoro-3-[(5R)-3-imino-2,5-dimethyl-1,1-dioxido-1,2,4-thiadiazinan-5-yl]phenyl}-7-methoxypyrido[3,2-d]pyrimidin-4-amine] | 4.3 | 4.3 | 4.4 | – | -55 | – |
| COc1cnc2c(Nc3ccc(F)c([C@]4(C)CS(=O)(=O)N(C)C(=N)N4)c3)nccc2n1 [Example 9, N-{4-fluoro-3-[(5R)-3-imino-2,5-dimethyl-1,1-dioxido-1,2,4-thiadiazinan-5-yl]phenyl}-2-methoxypyrido[3,4-b]pyrazin-5-amine] | 2.6 | 2.6 | 3.5 | – | -68 | – |
| CN1C(=N)N[C@](C)(c2cc(Nc3ncnc4cc(C#N)cnc34)ccc2F)CS1(=O)=O [Example 7, 4-({4-fluoro-3-[(5R)-3-imino-2,5-dimethyl-1,1-dioxido-1,2,4-thiadiazinan-5-yl]phenyl}amino)pyrido[3,2-d]pyrimidine-7-carbonitrile] | 3.2 | 3.2 | 3 | – | -21 | – |
| COc1cnc2c(Nc3ccc(F)c([C@]4(C)CS(=O)(=O)N(C)C(=N)N4)c3)nccc2c1 [Example 4, N-{4-fluoro-3-[(5R)-3-imino-2,5-dimethyl-1,1-dioxido-1,2,4-thiadiazinan-5-yl]phenyl}-3-methoxy-1,7-naphthyridin-8-amine] | 11.7 | 12 | 5.8 | – | -45 | – |
| COc1cccnc1Nc1ccnc([C@]2(C)CS(=O)(=O)N(C)C(=N)N2)c1 [165 (Table XXI), reference compound] | – | – | – | 48 | – | -11 |
| CN1C(=N)N[C@](C)(c2cc(Nc3nccc4nc(C(F)F)cnc34)ccc2F)CS1(=O)=O [Example 12, 2-(difluoromethyl)-N-{4-fluoro-3-[(5R)-3-imino-2,5-dimethyl-1,1-dioxido-1,2,4-thiadiazinan-5-yl]phenyl}pyrido[3,4-b]pyrazin-5-amine] | 5.2 | 5.2 | 1.8 | – | -44 | – |

Continued by falling Ki [1, 4], values first:

| Ki [1, 4] [nM] | Ki ([1]; Table 2, read-out: BACE1 Ki) [nM] | Ki [2] [nM] | Ki ([1]; Table 3, comparator compounds of WO2011044181, read-out: BACE-1 Ki Nm) [nM] | SMILES | change in vivo at 10 mg/kg [3, 5] [%] | change in vivo at 10 mg/kg ([3]; Table 3, comparator compounds of WO2011044181, rats, CSF at three hours, percent change vs vehicle) [%] |
| --- | --- | --- | --- | --- | --- | --- |
| 2.1 | 2.1 | 1.1 | – | CN1C(=N)N[C@](C)(c2c(F)ccc(Nc3nccc4cc(C#N)cnc34)c2F)CS1(=O)=O [Example 11, 8-({2,4-difluoro-3-[(5R)-3-imino-2,5-dimethyl-1,1-dioxido-1,2,4-thiadiazinan-5-yl]phenyl}amino)-1,7-naphthyridine-3-carbonitrile] | -50 | – |
| 2.1 | 2.1 | 0.24 | – | CN1C(=N)N[C@](C)(c2cc(Nc3nccc4cc(F)cnc34)ccc2F)CS1(=O)=O [Example 8, 3-fluoro-N-{4-fluoro-3-[(5R)-3-imino-2,5-dimethyl-1,1-dioxido-1,2,4-thiadiazinan-5-yl]phenyl}-1,7-naphthyridin-8-amine] | -21 | – |
| 1.31 | 1.3 | 0.46 | – | CN1C(=N)N[C@](C)(c2cc(Nc3nccc4cc(C#N)cnc34)ccc2F)CS1(=O)=O [Example 6, 8-({4-fluoro-3-[(5R)-3-imino-2,5-dimethyl-1,1-dioxido-1,2,4-thiadiazinan-5-yl]phenyl}amino)-1,7-naphthyridine-3-carbonitrile] | -50 | – |
